Experimental data as given in US20100267795A1, “NITROSUBSTITUTED ARYLOXYALKYLIMIDAZOLINES FOR USE AS PESTICIDES” (SYNGENTA CROP PROTECTION, INC., priority 2007, published 2010).

Legend:
Type in all cases: in vivo
[1] = test system: Heliothis virescens (tobacco budworm); experiment: Heliothis virescens (tobacco budworm) egg/larva test on artificial diet; settings: for control (egg mortality, larval mortality, growth regulation): 200 ppm by pipetting, eggs 0-24 h old on artificial diet, 4 days incubation; for mortality at 200 ppm: Heliothis virescens, read-out: control (egg mortality, larval mortality, growth regulation)
Protocol: Eggs (0-24 h old) were placed in 24-well microtiter plate on artificial diet and treated with test solutions at an application rate of 200 ppm by pipetting. After an incubation period of 4 days, samples were checked for egg mortality, larval mortality, and growth regulation. The following compounds gave 100% control: 1.003 and 1.009. The following compounds gave 80% control: 1.001, 1.004, 1.005, 1.008 and 1.016. The following compounds gave 50% control: 1.013 and 1.017.

[2] = test system: Myzus persicae (green peach aphid); experiment: Myzus persicae (green peach aphid) pea seedling root uptake test; settings: for control (mortality): 24 ppm test solution, roots of infested pea seedlings, 6 days after introduction; for mortality at 24 ppm: Myzus persicae, 144 h, read-out: control (mortality)
Text: Roots of pea seedlings, infested with an aphid population of mixed ages, were placed directly in the test solutions of 24 ppm. 6 days after introduction, samples were checked for mortality. The following compounds gave 100% control: 1.004 and 1.012. The following compounds gave 80% control: 1.001, 1.002, 1.009, 1.013 and 1.016. The following compound gave 50% control: 1.003.

[3] = test system: Myzus persicae (green peach aphid); experiment: Myzus persicae (green peach aphid) sunflower leaf disc spray test; settings: for control (mortality): 200 ppm spray on sunflower leaf discs, aphid population of mixed ages, 6 DAT; for mortality at 200 ppm: Myzus persicae, foliar, 144 h, read-out: control (mortality)
Protocol: Sunflower leaf discs were placed on agar in a 24-well microtiter plate and sprayed with test solutions at an application rate of 200 ppm. After drying, the leaf discs were infested with an aphid population of mixed ages. After an incubation period of 6 DAT, samples were checked for mortality. The following compounds gave 100% control: 1.001, 1.002, 1.003, 1.004, 1.005, 1.006, 1.008, 1.009, 1.012, 1.013, 1.014, 1.016, 1.017 and 1.018. The following compounds gave 80% control: 1.007 and 1.011. The following compound gave 50% control: 1.010

[4] = test system: Tetranychus urticae (two-spotted spider mite); experiment: Tetranychus urticae (two-spotted spider mite) bean leaf disc spray test; settings: for mortality at 200 ppm: Tetranychus urticae, foliar, 192 h, read-out: control (egg mortality, larval mortality, adult mortality)
Text: Bean leaf discs on agar in 24-well microtiter plates wer sprayed with test solutions at an application rate of 200 ppm. After drying, the leaf discs are infested with mite populations of mixed ages. 8 days later, discs are checked for egg mortality, larval mortality, and adult mortality. The following compounds gave 100% control: 1.001, 1.002, 1.003, 1.004, 1.006, 1.008, 1.009, 1.010, 1.012, 1.013, 1.014, 1.016, 1.017 and 1.018. The following compound gave 50% control: 1.011.

## CCC(Oc1cccc([N+](=O)[O-])c1C)C1=NCCN1 (stereo not drawn) [Compound 1.001]
[1]
  control (egg mortality, larval mortality, growth regulation): 80%
[2]
  control (mortality): 80%

## Cc1c(OC(C2=NCCN2)C(C)C)cccc1[N+](=O)[O-] (stereo not drawn) [Compound 1.002]
[2]
  control (mortality): 80%

## Cc1c(OC(C2=NCCN2)C2CC2)cccc1[N+](=O)[O-] (stereo not drawn) [Compound 1.003]
[1]
  control (egg mortality, larval mortality, growth regulation): 100%
[2]
  control (mortality): 50%

## CCCC(Oc1cccc([N+](=O)[O-])c1C)C1=NCCN1 (stereo not drawn) [Compound 1.004]
[1]
  control (egg mortality, larval mortality, growth regulation): 80%
[2]
  control (mortality): 100%

## CCCCC(Oc1cccc([N+](=O)[O-])c1C)C1=NCCN1 (stereo not drawn) [Compound 1.005]
[1]
  control (egg mortality, larval mortality, growth regulation): 80%

## CCC(Oc1cccc([N+](=O)[O-])c1C)C1=NCCN1C(=O)OC(C)(C)C (stereo not drawn) [Compound 1.007]
[3]
  control (mortality): 80%

## CCC(Oc1cccc([N+](=O)[O-])c1Cl)C1=NCCN1 (stereo not drawn) [Compound 1.008, 2-[1-(2-Chloro-3-nitro-phenoxy)-propyl]-4,5-dihydro-1H-imidazole]
[1]
  mortality at 200 ppm: 80%
[3]
  mortality at 200 ppm: 100%
[4]
  mortality at 200 ppm: 100%

## CCCC(Oc1cccc([N+](=O)[O-])c1Cl)C1=NCCN1 (stereo not drawn) [Compound 1.009]
[1]
  control (egg mortality, larval mortality, growth regulation): 100%
[2]
  control (mortality): 80%

## CCCC(Oc1cccc([N+](=O)[O-])c1Cl)C1=NCCN1C(=O)OC(C)(C)C (stereo not drawn) [Compound 1.010]
[3]
  control (mortality): 50%

## CCC(Oc1cccc([N+](=O)[O-])c1Cl)C1=NCCN1C(=O)OC(C)(C)C (stereo not drawn) [Compound 1.011]
[3]
  control (mortality): 80%
[4]; 200 ppm spray on bean leaf discs, mite populations of mixed ages, 8 days
  control (egg mortality, larval mortality, adult mortality): 50%

## COCC(Oc1cccc([N+](=O)[O-])c1C)C1=NCCN1 (stereo not drawn) [Compound 1.012, 2-[2-Methoxy-1-(2-methyl-3-nitro-phenoxy)-ethyl]-4,5-dihydro-1H-imidazole]
[3]
  mortality at 200 ppm: 100%
[2]
  mortality at 24 ppm: 100%
[4]
  mortality at 200 ppm: 100%

## C=CCC(Oc1cccc([N+](=O)[O-])c1C)C1=NCCN1 (stereo not drawn) [Compound 1.013]
[1]
  control (egg mortality, larval mortality, growth regulation): 50%
[2]
  control (mortality): 80%

## C=CCC(Oc1cccc([N+](=O)[O-])c1Cl)C1=NCCN1 (stereo not drawn) [Compound 1.016, 2-[1-(2-Chloro-3-nitro-phenoxy)-but-3-enyl]-4,5-dihydro-1H-imidazole]
[1]
  mortality at 200 ppm: 80%
[3]
  mortality at 200 ppm: 100%
[2]
  mortality at 24 ppm: 80%
[4]
  mortality at 200 ppm: 100%

## COCC(Oc1cccc([N+](=O)[O-])c1Cl)C1=NCCN1 (stereo not drawn) [Compound 1.017]
[1]
  control (egg mortality, larval mortality, growth regulation): 50%
